Reference: US10426755B2, “Methods for inhibiting cancer cells” (Chang Gung Memorial Hospital, Chiayi, priority 2015, dated 2019)
“Also recorded” adds a separate entry of the source.

What was measured:
Type in all cases: cell-based
[1] = test system: ARK2 endometrial cancer cells; experiment: XTT proliferation assay, ARK2; details: 5, 10 and 20 μM DT, 1-2 days, FIG. 4
Experimental: The prostate cancer cells were plated at a density of 10^3 or 3×10^3 per well, in a 96-well plate, in a medium containing 10% Fetal bovine serum (FBS) (Gibco®, commercially available from Life Technologies, USA). Once the prostate cancer cells were attached to the culture dish, the 10% FBS medium was replaced with a second 10% FBS medium and each of the prostate cancer cell line was treated with 1, 5, and 10 μM of DT respectively for 1-2 days. The absorbance was measured using XTT assay kit (commercially available from Roche, Switzerland) at 492 nm using an ELISA reader (Bio-Rad Laboratories, USA).
An in vitro evaluation of the effect of DT on endometrial cancer cells was performed. The endometrial cancer cell lines, ARK1 and ARK2, were provided by Dr. T H Wang at Chang Gung Meorial Hospital, Linkou, Taiwan)
The endometrial cancer cells were cultured and plated according to the steps in Example 1 and each of the endometrial cancer cell line was treated with 0 (control), 5, 10 and 20 μM of DT, respectively for 1-2 days. The absorbance was measured using XTT assay kit at 492 nm using an ELISA reader.

[2] = test system: γ-H2AX and phosphorylated-ATM in A549 and chemotherapy-resistant/metastatic H460 lung cancer cells; experiment: Western blot of DNA damage response proteins, lung cancer cells; details: various concentrations of DT, vs control vehicle; dose dependent; FIG. 10 (a)-(b)
Experimental: An in vitro evaluation on the damage effect of DT on cancer cells was performed, using prostate cancer cells (metastatic LNCaP and metastatic DU145, hormone therapy resistant and metastatic PC3 and 22RV1) and lung cancer cells (A549 and chemotherapy-resistant/metastatic H460).
Cancer cells were treated with a control vehicle, dihydrotestosterone (DHT), and various concentrations of DT between 6 to 24 hours. Cellular extracts of treated cancer cells were analyzed using Western Blot.

[3] = test system: skp2, MMP2, MMP9 in DU145, PC3 and 22RV1 prostate cancer cells; experiment: skp2 and downstream gene mRNA expression, prostate cancer cells; details: various concentrations of DT vs DMSO; PC3, DU145, 22RV1; FIG. 9 (h)-(l)
Experimental: (§1) It has been reported that skp2 plays an important role in the metastasis of cancer cells. An in vitro evaluation of the effect of DT on prostate cancer cell metastasis was performed, by measuring the mRNA expression of skp2 in the following prostate cancer cell lines: meatstatic DU145 cells (Panels i-j of FIG. 9), hormone therapy resistant and metastatic PC3 cells (Panel h of FIG. 9), and 22RV1 cells (Panels k-l of FIG. 9), A549 lung cancer cells (Panels (c)-(e) of FIG. 10), chemotherapy-resistant/metastatic H460 lung cancer cells (Panels (d) and (f) of FIG. 10), HCT116 colon cancer cells (Panels (g) and (i) of FIG. 10) and MCF7-tamoxifen resistant breast cancer cells (Panels (h) and (j) of FIG. 10) […].
(§2) The cancer cells were treated with DMSO and various concentrations of DT.

[4] = test system: skp2 and downstream genes in MCF7-tamoxifen resistant breast cancer cells; experiment: skp2 and downstream gene mRNA expression, tamoxifen resistant breast cancer cells; details: various concentrations of DT vs DMSO, FIG. 10 (h), (j)
Experimental: as §1, §2

[5] = test system: lung cancer cells (A549 and chemotherapy resistant/metastatic H460); experiment: Cell migration (wound-healing) assay, lung cancer cells; details: DT vs control vehicle, 24 h, dose dependent; FIG. 11
Experimental: (§3) An in vitro evaluation of the effect of DT on lung cancer cells (A549 and chemotherapy resistant/metastatic H460), prostate cancer cells (metastatic DU145) and colorectal cancer cells (chemotherapy resistant HCT116) invasion and migration was performed, using cell invasion assay and cell migration assay.
Cell Migration Assay: In vitro wound-healing assay was used to assess cell motility in two dimensions. Cancer cells were plated overnight to achieve a subconfluent cell layer in 24-well plates. A scratch was made on the cell layer with a micropipette tip, and cultures were washed twice with serum-free medium to remove floating cells. Cancer cells were incubated in a culture medium containing DT or the control vehicle. Wound healing was visualized by comparing photographs taken at the time of adding the DT/control vehicle and 24 h later. Three experiments were done in quadruplicates.

[6] = test system: prostate cancer cells (metastatic DU145, PC3, 22RV1); experiment: Cell invasion assay (transwell, Matrigel), prostate cancer cells; details: 5 or 10 μM DT, 3 days, vs control vehicle; FIG. 12 (a), (c), (e)
Experimental: as §3
(§4) Cell Invasion Assay: cells of interest were treated with a control vehicle, 5 or 10 μM of DT and incubated for 3 days. 1×10^5 cells were placed into the upper chamber of transwell plates (8 μm) with membranes pre-coated with 20% Matrigel and the bottom chamber contained 600 μL media supplemented with 10% fetal bovine serum (FBS). The cells migrated to the bottom of the chamber were fixed, stained and counted.

[7] = test system: colorectal cancer cells (chemotherapy resistant HCT116); experiment: Cell invasion assay (transwell, Matrigel), colorectal cancer cells; details: 5 or 10 μM DT, 3 days, vs control vehicle; FIG. 13 (a)
Experimental: as §3, §4

[8] = test system: CCL2 in RAW264.7 macrophages; experiment: CCL2 ELISA of culture medium, RAW264.7 macrophages; details: 5 or 10 μM DT, 24 hours, vs DMSO, FIG. 14 (a)
Experimental: It has been reported that increased CCL2 expression enhances cancer cell metastasis via macrophage recruitment. The effect of DT on CCL2 expression in RAW264.7 macrophages, THP1 monocytes and prostate cancer cells (metastatic DU145 and hormone therapy resistant and metastatic PC3) was examined by treating the cells with DMSO (control), 5 or 10 μM DT for 24 hours.
The culture medium was collected and the concentration of CCL2 was measured using ELISA assay.

macrophages = experiment: Macrophage mobility after DT treatment; details: macrophages treated with 5 or 10 μM DT vs DMSO
Experimental: (§5) An in vitro study to evaluate the effect of DT on macrophage and cancer cell migration was performed.
(§6) Macrophages were treated with a vehicle (DMSO), 5 or 10 μM DT. The mobility of the macrophages was not affected by DT. The macrophages were placed in an invasive assay, prepared accordingly to the steps in Example 10 using DT-treated prostate cancer cells (DU145 or PC3) incubated in 10% CD-FBS RPMI medium.

[9] = test system: macrophages with prostate cancer cells (DU145 or PC3); experiment: Macrophage migration in invasive assay with DT-treated prostate cancer cells; details: DT-treated vs untreated DU145 and PC3 cells; images not shown
Experimental: as §5, §6

With Cc1cccc2c3c(ccc12)C(=O)C1=C(OCC1C)C3=O (stereo not shown) [DT, dihydroisotanshinone I] as the compound, how does the “inhibition of ARK2 endometrial cancer cells” value [1] read?
Its value is “effective in inhibiting ARK1 and ARK2 endometrial cancer cells”.

And the “DNA damage response proteins (γ-H2AX and phosphorylated-ATM), lung cancer cells” value [2]?
The value was “increase in DNA damage response proteins (γ-H2AX and phosphorylated-ATM); also recorded: increased the DNA damage response proteins (γ-H2AX, phosphorylated-ATM)”.

What about the “mRNA expression of skp2 and its downstream genes, prostate cancer” value [3] of the same compound?
Its value is “effectively inhibit mRNA expression of skp2 and its downstream genes; also recorded: reduced skps and its downstream genes, MMP2 and MMP9”.

And the “mRNA expression of skp2 and its downstream genes, target therapy resistant breast cancer” value [4]?
Its value is “effectively inhibit mRNA expression of skp2 and its downstream genes; also recorded: reduces skps and its downstream genes, MMP2, MMP9 and E-cadherin”.

And the “lung cancer cell migration into the wounded area” value [5]?
The value was “reduced metastatic lung cancer cell migration; also recorded: reduced lung cancer cell migration into the wounded area”.

What about the “prostate cancer cell motility (invasion assay)” value [6] of the same compound?
The value was “reduced the motility and migration of prostate cancer cells”.

And the “colorectal cancer cell motility (invasion assay)” value [7]?
Its value is “reduced the motility of chemotherapy resistant colorectal cancer cells; also recorded: reduced the motility of colon cancer cells”.

What about the “production of CCL2 in macrophages” value [8] of the same compound?
Its value is “effectively inhibit the production of CCL2”.

And the “mobility of the macrophages” value (macrophages)?
Its value is “not affected”.

What about the “macrophage migration induced by prostate cancer cells” value [9] of the same compound?
Its value is “inhibit macrophage migration”.
